Ends that are not written are not given here.
How the values were obtained:
[1] = tested on: outflow pathway cells of perfused porcine eyes; assay: Morphological studies of perfused eyes (transmission electron microscopy of outflow pathway); conditions: porcine eyes perfused with peptide, 4 pairs, versus sham controls
Method: After completion of RGD perfusion experiments, 4 pairs of the experimental and the control eyes were fixed for morphological examination. The fixation was performed by perfusing overnight at constant pressure of 15 mmHg with perfusion buffer containing 2.5% gluteraldehyde and 2.0% formaldehyde. Small cross-section wedges of the outflow pathway area of fixed eyes were prepared for transmission electron microscopy as described previously (Epstein et al, Invest. Ophthalmol Vis. Sci. 40:74-8116 (1999)). The specimens were fixed in 1% osmium tetraoxide in 0.1 M sodium cacodylate buffer and stained with 1% uranyl acetate for 1 hr in dark. Further, the tissues were dehydrated, infiltrated and embedded on Spurr embedding medium (Ted Pella, Inc., Redding, Calif.). Ultrathin sections (70 nm) were obtained by microtomy and stained with potassium permanganate and Sato's lead sequentially before examined with a transmission electron microscope (1200 EX; JEOL, Peabody, Mass.).

[2] = tested on: New Zealand White rabbits; assay: RGD-peptide injection in the anterior chamber of rabbit eye; type: in vivo; conditions: 500 μg in PBS injected into the anterior chamber of one eye, live rabbits n=3
Method: New Zealand White rabbits of approximately five pounds were used for this experiment. Baseline Intraocular Pressure (IOP) data was obtained using a MENTOR tonopen prior to anaesthesia. The rabbits were anaesthetized with IM KETAMINE and topical proparacaine. The GRGDTP peptide (500 μg) was dissolved in phosphate buffered saline (PBS) and injected into the anterior chamber of only one eye. Further intraocular pressure mesurements were performed with a tonopen and data recorded in a time dependent manner, as shown in FIG. 8.
The results are expressed as percent change in IOP as compared to basal values obtained before injection of the RGD peptide. The basal value was taken as IOP (0%) in both eyes and the contralateral eye was used as control.

[3] = tested on: Human Schlemm's canal (SC) cell monolayers; assay: SC cell monolayer permeability barrier function (HRP diffusion on Transwells); type: cell-based; conditions: 200 μM peptide, 1 hr, complete medium, n=7; mean ± S.E.
Method: (§1) Human cadaver eye tissues were obtained from the National Disease Research Interchange (NDRI; Philadelphia, Pa.), and the SC cells were isolated following the techniques previously described (Stammer et al, Invest. Ophthalmol. Vis. Sci. 39:1804 (1998)). The cells were grown in Dulbecco's modified Eagle's medium with 10% fetal bovine serum, 2 mM L-glutamine, 100 U/ml penicillin G and 100 μg/ml streptomycine sulfate (all from GibcoBRL, Gaithersburg, Md.). The primary cultures of SC cells were used between the passages of three to six, throughout the experiments.
To correlate the specific effects of the RGD peptide compared to a control RGE peptide, the standard device was used to measure the monolayer permeability barrier function on Transwells cell culture chambers (fibronectin-coated polycarbonate filters, […] pore size, Costar Corp.) as described by Lampugnani et al (J. Cell Biol. 112: 479-490 (1991)). The diffusion of horseradish peroxidase (HRP) through SC cell monolayer was determined with and without RGD hexapeptide GRGDTP (Sigma, St. Louis, Mo.) or known control RGE hexapeptide GRGESP (GibcoBRL, Gaithersberg, Md.). […] Results were expressed as percent change in enzyme activity as compared to untreated controls. Values were obtained from three independent experiments and expressed as means±S.E. A paired t-test analysis was also performed with respect to untreated controls.

[4] = tested on: Human Schlemm's canal (SC) cell monolayers; assay: SC cells monolayer integrity assay in vitro (phase contrast, F-actin and focal adhesion staining); type: cell-based; conditions: complete medium, 37 C
Method: as §1
To evaluate the effect of RGD peptide on monolayer integrity, the SC cells were seeded on fibronectin-coated coverslips and grown for 10 days in complete medium. Before the experiment, the gaps in the confluent cells layer on coverslips were examined thoroughly. Further, the culture media was replaced with RGD peptide or control RGE peptide (200 μM)-containing complete medium and incubated at 37° C. in CO2 incubator. The changes in morphology (cell retraction, cell-cell attachments) were followed for 3 hrs. The induced morphological changes were monitored by phase contrast microscopy (Zeiss IM 35). For clear illustration of the specific and non-toxic effects of RGD peptide, the changes in SC cells monolayer integrity and reversibility were followed after treatment at higher concentration (1.0 mM) as compared to control RGE peptide. The coverslips were fixed with 3.7% formaldehyde and stained for F-actin and focal adhesions as described earlier (Lampugnani et al, J. Cell Biol. 112: 479-490 (1991)). The RGD-containing medium was removed with complete culture medium after three times washing and incubation was continued. Further, the reversibility of the gaps formation was followed.

Substance | cellular toxicity in outflow pathway of perfused eyes [1] | cellular toxicity in outflow pathway of perfused eyes ([1]; listed as RGD) | evidence of anterior chamber inflammation and wound leakage [2] | increase in SC cells monolayer permeability (HRP diffusion) as compared to untreated controls [3] | morphological effect on SC cell monolayer integrity ([4]; 200 μM peptide, up to 3 hrs) | morphological effect on SC cell monolayer integrity ([4]; 1.0 mM peptide, 3 hrs) | morphological effect on SC cell monolayer integrity ([4]; 1.0 mM peptide, 3 hrs, listed as RGE peptide)
GRGDTP [GRGDTP] | did not show signs of cellular toxicity | no sign of cellular toxicity | no clinically significant changes |  |  |  | 
GRGESP |  |  |  | 12%±3 | compact cellular morphology | no such effect was noted | no detectable effects

From US20010053766A1, “Method of treating disorders of the eye” (priority 2000, published 2001)
